Results as given in PubChem BioAssay AID588671 (Sanford-Burnham Center for Chemical Genomics, 2011).
Activity calls are given as the source filed them.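 How the source made its calls: active means IC50 at or below 20 µM; inactive means the rest.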

target: glucose-6-phosphate dehydrogenase-6-phosphogluconolactonase (PfGluPho), Plasmodium falciparum 3D7; assay: inhibition of P. falciparum G6PD activity – biochemical, fluorescence intensity, set 2, SAR follow-up (AID 588671); conditions: recombinant PfGluPho, diaphorase-resazurin NADPH fluorescence

With `O=C(NCCN1CCCC1)c1ccc2c(c1)NC(=O)c1ccccc1S2` as the compound, how does the IC50 read?
The IC50 was “inactive”.

For `CCN(CC)CCNC(=O)c1ccc2c(c1)NC(=O)c1ccccc1S2`, which IC50 is on record?
The IC50 was “inactive”.

`O=C1Nc2cc(C(=O)NCc3ccccc3)ccc2S/C1=C\c1ccccc1F` was tested. Which IC50 did it give?
Its IC50 is > 80 µM (inactive).

Which IC50 does the source give for `CCN1CCCC1CNC(=O)c1ccc2c(c1)NC(=O)c1ccccc1O2` (configuration not stated) here?
Its IC50 is “inactive”.

With `CN(C)CCNC(=O)c1ccc2c(c1)NC(=O)CO2` as the compound, how does the IC50 read?
The IC50 was > 80 µM (inactive).

For `CCN1CCCC1CNC(=O)c1ccc2c(c1)NC(=O)/C(=C/c1cccc3ccccc13)S2` (configuration not stated), which IC50 is on record?
The IC50 was 4.28 µM.

With `O=C(NCCN1CCOCC1)c1ccc2c(c1)NC(=O)c1ccccc1O2` as the compound, how does the IC50 read?
The IC50 was > 80 µM (inactive).

Which IC50 does the source give for `CCN(CC)CCNC(=O)c1ccc2c(c1)NC(=O)CO2` here?
The IC50 was > 80 µM (inactive).

With `CCN1CCCC1CNC(=O)c1ccc2c(c1)NC(=O)c1ccccc1S2` (configuration not stated) as the compound, how does the IC50 read?
The IC50 was 9.89 µM.

How did the IC50 turn out when `CN(C)CCNC(=O)c1ccc2c(c1)NC(=O)c1ccccc1O2` was run?
The IC50 was > 80 µM (inactive).

Which IC50 does the source give for `CCN1CCCC1CNC(=O)c1ccc2c(c1)NC(=O)CO2` (configuration not stated) here?
The IC50 was > 80 µM (inactive).

For `CCN1CCCC1CNC(=O)c1ccc2c(c1)NC(=O)/C(=C/c1ccccc1C)S2` (configuration not stated), which IC50 is on record?
Its IC50 is 5.93 µM.

`O=C1COc2ccc(C(=O)NCCN3CCOCC3)cc2N1` was tested. Which IC50 did it give?
Its IC50 is > 80 µM (inactive).

How did the IC50 turn out when `CN1CCN(C(=O)c2ccc3c(c2)NC(=O)/C(=C/c2ccccc2Cl)S3)CC1` was run?
Its IC50 is > 80 µM (inactive).

Which IC50 does the source give for `CCN1CCCC1CNC(=O)c1ccc2c(c1)NC(=O)/C(=C/c1ccccc1OC)S2` (configuration not stated) here?
The IC50 was 9.79 µM.

`CN1CCCC1CCNC(=O)c1ccc2c(c1)NC(=O)/C(=C/c1ccccc1F)S2` (configuration not stated) was tested. Which IC50 did it give?
The IC50 was “inactive”.

For `CCN1CCCC1CNC(=O)c1ccc2c(c1)NC(=O)/C(=C/c1ccccc1F)S2` (configuration not stated), which IC50 is on record?
The IC50 was 1.71 µM.

For `CCN1CCC[C@H]1CNC(=O)c1ccc2c(c1)NC(=O)/C(=C/c1ccccc1F)S2`, which IC50 is on record?
The IC50 was 4.79 µM.

Which IC50 does the source give for `O=C(NCCN1CCCCC1)c1ccc2c(c1)NC(=O)c1ccccc1O2` here?
The IC50 was “inactive”.

`O=C1Nc2cc(C(=O)NCCN3CCOCC3)ccc2S/C1=C\c1ccccc1F` was tested. Which IC50 did it give?
Its IC50 is > 80 µM (inactive).

Which IC50 does the source give for `CCN1CCC[C@@H]1CNC(=O)c1ccc2c(c1)NC(=O)/C(=C/c1ccccc1F)S2` here?
Its IC50 is 1.19 µM.

Which IC50 does the source give for `O=C1COc2ccc(C(=O)NCCN3CCCC3)cc2N1` here?
Its IC50 is > 80 µM (inactive).

For `O=C(NCCN1CCCC1)c1ccc2c(c1)NC(=O)c1ccccc1O2`, which IC50 is on record?
Its IC50 is “inactive”.

With `CCN1CCCC1CNC(=O)c1ccc2c(c1)NC(=O)CS2` (configuration not stated) as the compound, how does the IC50 read?
Its IC50 is > 80 µM (inactive).

`CCN(CC)CCNC(=O)c1ccc2c(c1)NC(=O)c1ccccc1O2` was tested. Which IC50 did it give?
Its IC50 is “inactive”.

With `O=C1Nc2cc(C(=O)NCCN3CCCCC3)ccc2S/C1=C\c1ccccc1F` as the compound, how does the IC50 read?
Its IC50 is “inactive”.

`O=C1COc2ccc(C(=O)NCCN3CCCCC3)cc2N1` was tested. Which IC50 did it give?
The IC50 was > 80 µM (inactive).
